Laboratory results: US10889812B2, “Short non-coding protein regulatory RNAs (sprRNAs) and methods of use” (University of Maryland, Baltimore, priority 2014, dated 2021)

Legend:
H1437 = experiment: MTT assay, IC50 of CDDP in NSCLC cell lines; format: cell-based, Human
Experimental: (§1) Cell viability and cell growth curve assay were determined by MTT assay and trypan blue exclusion assay, respectively as described previously (Kirino, Y. & Mourelatos, Z. Mouse Piwi-interacting RNAs are 2′-O-methylated at their 3′ termini Nat Struct Mol Biol. 14, 347-348 (2007)). BrieflySpecifically, MTT (5 mg/ml) was added into cells and incubated at culture condition for 3 hours, removed the medium carefully and dissolved formazan in DMSO, assay was used to assess the surviving cells and OD values were measured using Microplate Reader Manager (Bio Rad) at wavelengths of 570/690 nm. For trypan blue exclusion assay, cells were washed in PBS for three times, and dyed in 0.4% tyrpan blue solution. Unstained viable cells were counted in hemocytometer chamber under microscope. Each experiment was performed three times independently.
(§2) To determine if piRNA-Ls play a role in chemo-sensitivity, we first selected 11 piRNA-Ls differentially expressed between NSCLC and HBE cells (Mei Y, Wang Y, Kumari P, et al. A piRNA-like small RNA interacts with and modulates p-ERM proteins in human somatic cells. Nat Commun 6, 7316. doi: 10.1038/ncomms8316 (2015)) and analyzed the relationship between the expression levels and the sensitivities to chemotherapeutic agents commonly used clinically for patients with NSCLC. We established doses of 50% inhibitory concentration (IC50) for CDDP, gemcitabine, and docetaxel in 4 SCC and 4 ADC cell lines based on 3-(4,5-dimethylthiazol-2-yl)-2,5-diphenyltetrazolium bromide (MTT) assay (Table 4). We then measured expression levels of the 11 selected piRNA-Ls using real-time RT-PCR before and 24 h after treatment with both IC50 (H) and IC25 (L) doses for each of the agents. […] Impact of gemcitabine and docetaxel in piR-L-138 expression was also determined in these NSCLC cell lines (FIG. 19). As CDDP is the backbone agent to treat patients with NSCLC, we selected CDDP as the representative agent to further determine the role of piR-L-138 in SCC cells' response to chemotherapy.

H157 = experiment: MTT assay, IC50 of CDDP in NSCLC cell lines; format: cell-based, Human
Experimental: as §1, §2

H1792 = experiment: MTT assay, IC50 of CDDP in NSCLC cell lines; format: cell-based, Human
Experimental: as §1, §2

H1944 = experiment: MTT assay, IC50 of CDDP in NSCLC cell lines; format: cell-based, Human
Experimental: as §1, §2

H226 = experiment: MTT assay, IC50 of CDDP in NSCLC cell lines; format: cell-based, Human
Experimental: as §1, §2

H522 = experiment: MTT assay, IC50 of CDDP in NSCLC cell lines; format: cell-based, Human
Experimental: as §1, §2

H596 = experiment: MTT assay, IC50 of CDDP in NSCLC cell lines; format: cell-based, Human
Experimental: as §1, §2

SKMES-1 = experiment: MTT assay, IC50 of CDDP in NSCLC cell lines; format: cell-based, Human; settings: SKMES-1, MTT assay
Experimental: as §1, §2

piR-L-138 [1] = experiment: piR-L-138 expression by real-time RT-PCR after chemotherapeutic agent, SCC cell lines; format: cell-based, human; settings: all SCC cell lines, 24 h after treatment
Description: as §2

piR-L-138 [2] = experiment: piR-L-138 expression by real-time RT-PCR after chemotherapeutic agent, ADC cell lines; format: cell-based, human; settings: 24 h after treatment
Description: as §2

IC50 (H1437): 50 µM
IC50 (H157): 80 µM
IC50 (H1792): 50 µM
IC50 (H1944): 100 µM
IC50 (H226): 40 µM
IC50 (H522): 45 µM
IC50 (H596): 30 µM
IC50 (SKMES-1): 10 µM
Structure (SMILES): [NH2][Pt]([NH2])([Cl])[Cl] [CDDP, cisplatin]
piR-L-138 levels (piR-L-138 [1]): consistent and substantial increase of piR-L-138 levels
piR-L-138 expression (piR-L-138 [2]): no or much smaller increase of piR-L-138 expression
